Assay results reported in patent US9925189B2, “Heterocyclic receptor agonists for the treatment of diabetes and metabolic disorders” (CymaBay Therapeutics, Inc., priority 2006, dated 2018).

Target: T1, IC-GPCR2 (Homo sapiens, UniProt Q8TDV5, S309L)
T1 construct: expressed in transfected cells
T1 sequence (Q8TDV5 1-335 S309L): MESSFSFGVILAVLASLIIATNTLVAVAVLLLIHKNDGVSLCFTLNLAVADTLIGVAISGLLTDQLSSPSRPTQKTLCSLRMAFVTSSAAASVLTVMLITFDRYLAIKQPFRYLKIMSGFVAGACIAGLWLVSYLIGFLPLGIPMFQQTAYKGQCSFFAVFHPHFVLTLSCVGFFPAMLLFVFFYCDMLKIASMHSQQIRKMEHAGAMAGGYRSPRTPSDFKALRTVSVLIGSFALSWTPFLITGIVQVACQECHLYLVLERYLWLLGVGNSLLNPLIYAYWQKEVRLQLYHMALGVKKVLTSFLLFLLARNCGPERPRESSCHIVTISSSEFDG
Experiment: Stimulation of cAMP in CHO cells stably expressing IC-GPCR2 (HTRF cAMP assay)
Format: cell-based
Conditions: 0.5 h, 30 minutes, IC-GPCR2 stably expressing CHO cells, read-out: Activity at 10 uM (% change in FRET signal from DMSO control)
Procedure: This assay was developed using a stable cell line expressing IC-GPCR-2, generated as follows. IC-GPCR2 (SEQ ID NO:1) was cloned into Gateway pDEST 40vector (Invitrogen), using the Gateway cloning system (invitrogen) according to the manufacturer's instructions. A stable cell line was generated by transfecting a 10 cm plate of CHO cells (source) with 8 ug of this construct using Transit-CHO transfection kit (Mirus). CHO cells were plated the day prior to transfection at a density of 3,000,000 cells/plate. Clones were selected using the antibiotic G418 at 500 ug/ml. 23 clones were picked and assayed for the expression of the receptor by measuring changes in intracellular cAMP levels in response to an IC-GPCR2 agonist.
To measure cAMP activity in response to IC-GPCR2 agonist, the clones were plated in 96 well plates at 17500 cells per well. On the day after plating, cells were incubated with the IC-CPCR2 agonist at […] for 30 minutes in Ham's F12 Media (Gibco) with 0.04% DMSO. cAMP was measured using the cAMP dynamic kit from Cis Bio (Bedford, Mass.) according to the manufacturer's instructions. Briefly, cells were lysed, and cAMP levels determined by competitive immunoassay using D2 labeled cAMP, and europium cryptate tagged anti cAMP antibody. When in close proximity, the D2 and europium cryptate undergo fluorescence resonance energy transfer (FRET), which is measured as a fluorescence ratio (665 nm/620 nm). Unlabelled cAMP in the cell lysate competed with the D2 labeled cAMP for the europium crypate labeled antibody. The resulting decrease in FRET signal corresponded to intracellular cAMP levels. Fluorescence was read on a BMG Labtech PHERAstar, software version 1.50.
Compounds were dissolved in 100% DMSO to a concentration of […] to provide stock solutions. To determine activity against IC-GPCR2, compounds were incubated with IC-GPCR2 stably expressing cells (described above), at 6-8 concentrations ranging from 0.00003 to 10 micromolar, in 96 well plates, in 50 ul of Hams F12 media for 30 minutes. Cells were plated at 17500 cells per well 1 day before running the assay. All compounds were also screened against the parental CHO cells. cAMP was measured using the cAMP dynamic kit from Cis Bio (Bedford, Mass.), according to the manufacturer's instructions. Briefly, cells were lysed and cAMP levels determined by competitive immunoassay using D2 labeled cAMP, and europium cryptate tagged anti cAMP antibody. When in close proximity, the D2 and europium cryptate undergo fluorescence resonance energy transfer (FRET), which is measured as a fluorescence ratio (665 nm/620 nm). Unlabelled cAMP in the cell lysate competed with the D2 labeled cAMP for the europium crypate labeled antibody. The resulting decrease in FRET signal corresponded to intracellular cAMP levels.
Activities of compounds disclosed in Table 1 and Table 2 below are expressed as the % change in FRET signal from DMSO control. “*” no activity observed when tested at 10 micromolar but no higher concentrations were tested. NT indicates the compound was not tested at the indicated concentration.

SMILES	activation at 10 µM [%]
Fc1cnc(N2CCC(c3nc(COc4ccc(-n5cnnn5)cc4)cs3)CC2)nc1 [Example 55, 5-Fluoro-2-{4-[4-(4-tetrazol-1-yl-phenoxymethyl)-thiazol-2-yl]-piperidin-1-yl}-pyrimidine]	66
Cc1cnc(N2CCC(c3nc(COc4ccc(-n5cnnn5)cc4)cs3)CC2)nc1Cl [Example 57, 4-Chloro-5-methyl-2-{4-[4-(4-tetrazol-1-yl-phenoxymethyl)-thiazol-2-yl]-piperidin-1-yl}-pyrimidine]	7
Clc1ccc(-c2cnc(N3CCC(c4nc(COc5ccc(-n6cnnn6)cc5)cs4)CC3)nc2)cc1 [Example 59]	70
Clc1cnc(N2CCC(c3nc(COc4ccc(-n5cnnn5)cc4)cs3)CC2)nc1 [Example 60]	60
COc1ccc(-c2cnc(N3CCC(c4nc(COc5ccc(-n6cnnn6)cc5)cs4)CC3)nc2)cc1 [Example 66, 5-(4-Methoxy-phenyl)-2-{4-[4-(4-tetrazol-1-yl-phenoxymethyl)-thiazol-2-yl]-piperidin-1-yl}-pyrimidine]	57
COc1cnc(N2CCC(c3nc(COc4ccc(-n5cnnn5)cc4)cs3)CC2)nc1 [Example 68, 5-Methoxy-2-{4-[4-(4-tetrazol-1-yl-phenoxymethyl)-thiazol-2-yl]-piperidin-1-yl}-pyrimidine]	53
Cc1ccc(N2CCC(c3nc(COc4ccc(-n5cnnn5)cc4)cs3)CC2)nc1 [Example 69, 5′-Methyl-4-[4-(4-tetrazol-1-yl-phenoxymethyl)-thiazol-2-yl]-3,4,5,6-tetrahydro-2H-[1,2′]bipyridinyl]	74
FC(F)(F)c1ccc(N2CCC(c3nc(COc4ccc(-n5cnnn5)cc4)cs3)CC2)nc1 [Example 71, 4-[4-(4-Tetrazol-1-yl-phenoxymethyl)-thiazol-2-yl]-5′-trifluoromethyl-3,4,5,6-tetrahydro-2H-[1,2′]bipyridinyl]	88
O=Cc1ccc(N2CCC(c3nc(COc4ccc(-n5cnnn5)cc4)cs3)CC2)nc1 [Example 72, 4-[4-(4-Tetrazol-1-yl-phenoxymethyl)-thiazol-2-yl]-3,4,5,6-tetrahydro-2H-[1,2′]bipyridinyl-5′-carbaldehyde]	78
CS(=O)(=O)c1ccc(OCc2csc(C3CCN(c4nc5ccccc5o4)CC3)n2)cc1 [Example 74, 2-{4-[4-(4-Methanesulfonyl-phenoxymethyl)-thiazol-2-yl]-piperidin-1-yl}-benzooxazole]	17
CCc1cnc(N2CCC(c3nc(COc4ccc(S(C)(=O)=O)cc4F)cs3)CC2)nc1 [Example 76, 5-Ethyl-2-{4-[4-(2-fluoro-4-methanesulfonyl-phenoxymethyl)-thiazol-2-yl]-piperidin-1-yl}-pyrimidine]	74
CC(C)(C)OC(=O)N1CCC(C)(c2nc(COc3ccc(S(C)(=O)=O)cc3)cs2)CC1 [Example 78, 4-[4-(4-Methanesulfonyl-phenoxymethyl)-thiazol-2-yl]-4-methyl-piperidine-1-carboxylic acid tert-butyl ester]	43
CC(C)(C)OC(=O)N1CCC(c2nc(COc3ccc(S(C)(=O)=O)cc3)no2)CC1 [Example 81, 4-[3-(4-Methanesulfonyl-phenoxymethyl)-[1,2,4]oxadiazol-5-yl]-piperidine-1-carboxylic acid tert-butyl ester]	59
CC(C)(C)OC(=O)N1CCC(c2noc(COCc3ccccc3)n2)CC1 [Example 83, 4-(5-Benzyloxymethyl-[1,2,4]oxadiazol-3-yl)-piperidine-1-carboxylic acid tert-butyl ester]	27
CCc1cnc(N2CCC(c3nc(COc4ccc(S(C)(=O)=O)cc4)no3)CC2)nc1 [Example 84, 5-Ethyl-2-{4-[3-(4-methanesulfonyl-phenoxymethyl)-[1,2,4]oxadiazol-5-yl]-piperidin-1-yl}-pyrimidine]	59
CC(C)(C)OC(=O)N1CCC(O)(c2nc(COc3ccc(S(C)(=O)=O)cc3)cs2)CC1 [Example 86, 4-Hydroxy-4-[4-(4-methanesulfonyl-phenoxymethyl)-thiazol-2-yl]-piperidine-1-carboxylic acid tert-butyl ester]	49
CC(C)(C)OC(=O)N1CCC(F)(c2nc(COc3ccc(S(C)(=O)=O)cc3)cs2)CC1 [Example 87, 4-Fluoro-4-[4-(4-methanesulfonyl-phenoxymethyl)-thiazol-2-yl]-piperidine-1-carboxylic acid tert-butyl ester]	62
CCc1cnc(N2CCC(F)(c3nc(COc4ccc(S(C)(=O)=O)cc4)cs3)CC2)nc1 [Example 88, 5-Ethyl-2-{4-fluoro-4-[4-(4-methanesulfonyl-phenoxymethyl)-thiazol-2-yl]-piperidin-1-yl}-pyrimidine]	49
CCc1cnc(N2CCC(F)(c3ncc(COc4ccc(S(C)(=O)=O)cc4)s3)CC2)nc1 [Example 90, 5-Ethyl-2-{4-fluoro-4-[5-(4-methanesulfonyl-phenoxymethyl)-thiazol-2-yl]-piperidin-1-yl}-pyrimidine]	64
CC(C)(C)OC(=O)N1CCN(c2nc(COc3ccc(S(C)(=O)=O)cc3)cs2)CC1 [Example 91, 4-[4-(4-Methanesulfonyl-phenoxymethyl)-thiazol-2-yl]-piperazine-1-carboxylic acid tert-butyl ester]	28
CC(C)CS(=O)(=O)N1CCN(c2nc(COc3ccc(S(C)(=O)=O)cc3)cs2)CC1 [Example 92, 1-[4-(4-Methanesulfonyl-phenoxymethyl)-thiazol-2-yl]-4-(2-methyl-propane-1-sulfonyl)-piperazine]	14
CC(C)(C)OC(=O)N1CCC(c2nc(CNc3ccc(F)nc3)cs2)CC1 [Example 94, 4-{4-[(6-Fluoro-pyridin-3-ylamino)-methyl]-thiazol-2-yl}-piperidine-1-carboxylic acid tert-butyl ester]	48
CC(C)c1noc(N2CCC(c3nc(COc4ccc(-n5cnnn5)cc4)cs3)CC2)n1 [Example 95, 1-(3-Isopropyl-[1,2,4]oxadiazol-5-yl)-4-[4-(4-tetrazol-1-yl-phenoxymethyl)-thiazol-2-yl]-piperidine]	63
CCc1noc(N2CCC(c3nc(COc4ccc(-n5cnnn5)cc4)cs3)CC2)n1 [Example 96, 1-(3-Ethyl-[1,2,4]oxadiazol-5-yl)-4-[4-(4-tetrazol-1-yl-phenoxymethyl)-thiazol-2-yl]-piperidine]	79
c1cc(-n2cnnn2)ccc1OCc1csc(C2CCN(c3nc(C4CC4)no3)CC2)n1 [Example 97, 1-(3-Cyclopropyl-[1,2,4]oxadiazol-5-yl)-4-[4-(4-tetrazol-1-yl-phenoxymethyl)-thiazol-2-yl]-piperidine]	52
FC(F)(F)c1noc(N2CCC(c3nc(COc4ccc(-n5cnnn5)cc4)cs3)CC2)n1 [Example 98, 4-[4-(4-Tetrazol-1-yl-phenoxymethyl)-thiazol-2-yl]-1-(3-trifluoromethyl-[1,2,4]oxadiazol-5-yl)-piperidine]	78
NC(=O)N1CCC(c2nc(COc3ccc(-n4cnnn4)cc3)cs2)CC1 [Example 99, 4-[4-(4-Tetrazol-1-yl-phenoxymethyl)-thiazol-2-yl]-piperidine-1-carboxylic acid amide]	67
